In patent publication US10336697B2, “Spiro[cyclobutane-1,3′-indolin]-2′-one derivatives as bromodomain inhibitors” (Orion Corporation, priority 2015, dated 2019):

Molecular target: Bet BRD4 full length bromo-domain protein (Homo sapiens, UniProt O60885)
Assay: Bet bromodomain TR-FRET assay (displacement of acetyl histone peptide)
Type: binding
Settings: Bet BRD4 full length bromodomain protein, 300 nM acetyl histone peptide substrate, read-out: IC50

| SMILES | IC50 [nM] |
| --- | --- |
| CCN1CCC(Nc2cc(NS(=O)(=O)c3ccc(F)cc3F)cc3c2NC(=O)C32CCC2)CC1 [Compound 24, N-(7′-((1-ethylpiperidin-4-yl)amino)-2′-oxospiro[cyclobutane-1,3′-indolin]-5′-yl)-2,4-difluorobenzenesulfonamide] | < 600 |
| O=C1Nc2c(NCc3cnc[nH]3)cc(NS(=O)(=O)c3ccc(F)cc3F)cc2C12CCC2 [Compound 25, N-(7′-(((1H-imidazol-5-yl)methyl)amino)-2′-oxospiro [cyclo butane-1,3′-indolin]-5′-yl)-2,4-difluorobenzene sulfonamide] | < 600 |
| O=C1Nc2c(NC3CCc4cc(F)ccc43)cc(NS(=O)(=O)c3ccc(F)cc3F)cc2C12CCC2 (stereo not drawn) [Compound 26, 2,4-Difluoro-N-(7′-((5-fluoro-2,3-dihydro-1H-inden-1-yl)amino)-2′-oxospiro[cyclobutane-1,3′-indolin]-5′-yl)benzenesulfonamide] | > 1000 |
| O=C1Nc2c(NCc3cccnc3)cc(NS(=O)(=O)c3ccc(F)cc3F)cc2C12CCC2 [Compound 27, 2,4-difluoro-N-(2′-oxo-7′-((pyridin-3-ylmethyl)amino)spiro[cyclobutane-1,3′-indolin]-5′-yl)benzenesulfonamide] | < 600 |
| CN1CCC(CCNc2cc(NS(=O)(=O)c3ccc(F)cc3F)cc3c2NC(=O)C32CCC2)CC1 [Compound 28, 2,4-Difluoro-N-(7′-((2-(1-methylpiperidin-4-yl)ethyl)amino)-2′-oxospiro[cyclobutane-1,3′-indolin]-5′-yl)benzenesulfonamide] | < 600 |
| CCCN1CCC(Nc2cc(NS(=O)(=O)c3ccc(F)cc3F)cc3c2NC(=O)C32CCC2)CC1 [Compound 29, 2,4-Difluoro-N-(2′-oxo-7′-((1-propylpiperidin-4-yl)amino)spiro[cyclobutane-1,3′-indolin]-5′-yl)benzenesulfonamide] | < 600 |
| Cc1nc(CNc2cc(NS(=O)(=O)c3ccc(F)cc3F)cc3c2NC(=O)C32CCC2)c[nH]1 [Compound 30, 2,4-Difluoro-N-(7′-(((2-methyl-1H-imidazol-4-yl)methyl)amino)-2′-oxospiro[cyclobutane-1,3′-indolin]-5′-yl)benzenesulfonamide] | < 600 |
| COc1ccccc1S(=O)(=O)Nc1cc(NC2CCCN(C)C2)c2c(c1)C1(CCC1)C(=O)N2 (stereo not drawn) [Compound 38, 2-Methoxy-N-(7′-((1-methylpiperidin-3-yl)amino)-2′-oxospiro[cyclobutane-1,3′-indolin]-5′-yl)benzenesulfonamide] | < 600 |
| COC(=O)c1cc(NS(=O)(=O)c2ccc(F)cc2F)cc2c1NC(=O)C21CCC1 [Compound 41, Methyl 5′-((2,4-difluorophenyl)sulfonamido)-2′-oxospiro[cyclobutane-1,3′-indoline]-7′-carboxylate] | < 600 |
| CN1CCC(C(=O)Nc2cc(NS(=O)(=O)c3ccc(F)cc3F)cc3c2NC(=O)C32CCC2)CC1 [Compound 43, N-(5′-((2,4-difluorophenyl)sulfonamido)-2′-oxospiro[cyclobutane-1,3′-indolin]-yl)-1-methylpiperidine-4-carboxamide] | 600 to 1000 |
| O=C(Nc1cc(NS(=O)(=O)c2ccc(F)cc2F)cc2c1NC(=O)C21CCC1)c1ccncc1 [Compound 45, N-(5′-(2,4-Difluorophenylsulfonamido)-2′-oxospiro[cyclobutane-1,3′-indolin]-7′-yl)isonicotinamide] | > 1000 |

Results, then the compound that gave them:

| IC50 [nM] | SMILES |
| --- | --- |
| > 1000 | O=C1Nc2c(NC3CCCCC3)cc(NS(=O)(=O)c3ccc(F)cc3F)cc2C12CCC2 [Compound 20, N-(7′-(cyclohexylamino)-2′-oxospiro[cyclobutane-1,3′-indolin]-5′-yl)-2,4-difluorobenzenesulfonamide] |
| < 600 | CCC(=O)N1CCC(Nc2cc(NS(=O)(=O)c3ccc(F)cc3F)cc3c2NC(=O)C32CCC2)CC1 [Compound 21, 2,4-Difluoro-N-(2′-oxo-7′-((1-propionylpiperidin-4-yl)amino)spiro[cyclobutane-1,3′-indolin]-5′-yl)benzenesulfonamide] |
| 600 to 1000 | CCOC(=O)N1CCC(Nc2cc(NS(=O)(=O)c3ccc(F)cc3F)cc3c2NC(=O)C32CCC2)CC1 [Compound 22, Ethyl 4-((5′-(2,4-difluorophenylsulfonamido)-2′-oxospiro [cyclobutane-1,3′-indolin]-7′-yl)amino)piperidine-1-carboxylate] |
| < 600 | O=C1Nc2c(NCc3ccncc3)cc(NS(=O)(=O)c3ccc(F)cc3F)cc2C12CCC2 [Compound 23, 2,4-Difluoro-N-(2′-oxo-7′-((pyridin-4-ylmethyl)amino)spiro[cyclobutane-1,3′-indolin]-5′-yl)benzenesulfonamide] |
| < 600 | Cn1cnc(CNc2cc(NS(=O)(=O)c3ccc(F)cc3F)cc3c2NC(=O)C32CCC2)c1 [Compound 31, 2,4-Difluoro-N-(7′-(((1-methyl-1H-imidazol-4-yl)methyl)amino)-2′-oxospiro[cyclobutane-1,3′-indolin]-5′-yl)benzenesulfonamide] |
| < 600 | CN1CCC(CNc2cc(NS(=O)(=O)c3ccc(F)cc3F)cc3c2NC(=O)C32CCC2)CC1 [Compound 32, 2,4-Difluoro-N-(7′-(((1-methylpiperidin-4-yl)methyl)amino)-2′-oxospiro[cyclobutane-1,3′-indolin]-5′-yl)benzenesulfonamide] |
| < 600 | O=C1CCC(Nc2cc(NS(=O)(=O)c3ccc(F)cc3F)cc3c2NC(=O)C32CCC2)CN1 (stereo not drawn) [Compound 33, 2,4-Difluoro-N-(2′-oxo-7′-((6-oxopiperidin-3-yl)amino)spiro[cyclobutane-1,3′-indolin]-5′-yl)benzenesulfonamide] |
| 600 to 1000 | CC1(C)CN(Cc2ccccc2)CCC1Nc1cc(NS(=O)(=O)c2ccc(F)cc2F)cc2c1NC(=O)C21CCC1 (stereo not drawn) [Compound 36, N-(7′-((1-benzyl-3,3-dimethylpiperidin-4-yl)amino)-2′-oxospiro[cyclobutane-1,3′-indolin]-5′-yl)-2,4-difluorobenzenesulfonamide] |
| > 1000 | CC(C)(C)OC(=O)N1CCC(Nc2cc(NS(=O)(=O)c3ccc(F)cc3F)cc3c2NC(=O)C32CCC2)C(F)C1 (stereo not drawn) [Compound 37, tert-Butyl 4-((5′-(2,4-difluorophenylsulfonamido)-2′-oxospiro[cyclobutane-1,3′-indolin]-7′-yl)amino)-3-fluoro piperidine-1-carboxylate] |
| < 600 | COc1ccccc1S(=O)(=O)Nc1cc(NC2CCN(C)CC2)c2c(c1)C1(CCC1)C(=O)N2 [Compound 39, 2-Methoxy-N-(7′-((1-methylpiperidin-4-yl)amino)-2′-oxospiro[cyclobutane-1,3′-indolin]-5′-yl)benzenesulfonamide] |
| 600 to 1000 | O=C(O)c1cc(NS(=O)(=O)c2ccc(F)cc2F)cc2c1NC(=O)C21CCC1 [Compound 42, 5′-((2,4-difluorophenyl)sulfonamido)-2′-oxospiro[cyclobutane-1,3′-indoline]-7′-carboxylic acid] |
| > 1000 | O=C(Nc1cc(NS(=O)(=O)c2ccc(F)cc2F)cc2c1NC(=O)C21CCC1)c1cccnc1 [Compound 44, N-(5′-(2,4-Difluorophenylsulfonamido)-2′-oxospiro[cyclobutane-1,3′-indolin]-7′-yl)nicotinamide] |
| > 1000 | O=C(Nc1cc(NS(=O)(=O)c2ccc(F)cc2F)cc2c1NC(=O)C21CCC1)C1CCOCC1 [Compound 46, N-(5′-(2,4-Difluorophenylsulfonamido)-2′-oxospiro[cyclobutane-1,3′-indolin]-7′-yl)tetrahydro-2H-pyran-4-carboxamide] |
